Measured values: ChEMBL document CHEMBL4680147, “Discovery of 6'-chloro-N-methyl-5'-(phenylsulfonamido)-[3,3'-bipyridine]-5-carboxamide (CHMFL-PI4K-127) as a novel Plasmodium falciparum PI(4)K inhibitor with potent antimalarial activity against both blood and liver stages of Plasmodium” (Eur J Med Chem, 2020)

How the values were obtained:
[1] = Inhibition of recombinant His-tagged Plasmodium falciparum 3D7 PI4K expressed in baculovirus infected Sf9 cells using PI:PS as substrate incubated for 1 hr in presence of ATP by ADP-Glo kinase assay
Plasmodium falciparum [2] = assay: Antimalarial activity against sulphadoxine-resistant blood stage Plasmodium falciparum 3D7 infected in human O+ erythrocytes incubated for 72 hrs by SYBR Green 1 dye based fluorescence assay; type: functional, organism-based; details: 3D7, Erythrocyte
Plasmodium falciparum [3] = assay: Antimalarial activity against Plasmodium falciparum GB4 infected in human O+ erythrocytes incubated for 72 hrs by SYBR Green 1 dye based fluorescence assay; type: functional, organism-based; details: GB4, Erythrocyte
[4] = Inhibition of human PIK3C2alpha by ADP-Glo kinase assay
[5] = biological target: Phosphatidylinositol 4,5-bisphosphate 3-kinase catalytic subunit beta isoform (Homo sapiens, UniProt P42338); assay: Inhibition of human PI3Kbeta by ADP-Glo kinase assay
Chain of Phosphatidylinositol 4,5-bisphosphate 3-kinase catalytic subunit beta isoform (P42338 whole entry, canonical isoform): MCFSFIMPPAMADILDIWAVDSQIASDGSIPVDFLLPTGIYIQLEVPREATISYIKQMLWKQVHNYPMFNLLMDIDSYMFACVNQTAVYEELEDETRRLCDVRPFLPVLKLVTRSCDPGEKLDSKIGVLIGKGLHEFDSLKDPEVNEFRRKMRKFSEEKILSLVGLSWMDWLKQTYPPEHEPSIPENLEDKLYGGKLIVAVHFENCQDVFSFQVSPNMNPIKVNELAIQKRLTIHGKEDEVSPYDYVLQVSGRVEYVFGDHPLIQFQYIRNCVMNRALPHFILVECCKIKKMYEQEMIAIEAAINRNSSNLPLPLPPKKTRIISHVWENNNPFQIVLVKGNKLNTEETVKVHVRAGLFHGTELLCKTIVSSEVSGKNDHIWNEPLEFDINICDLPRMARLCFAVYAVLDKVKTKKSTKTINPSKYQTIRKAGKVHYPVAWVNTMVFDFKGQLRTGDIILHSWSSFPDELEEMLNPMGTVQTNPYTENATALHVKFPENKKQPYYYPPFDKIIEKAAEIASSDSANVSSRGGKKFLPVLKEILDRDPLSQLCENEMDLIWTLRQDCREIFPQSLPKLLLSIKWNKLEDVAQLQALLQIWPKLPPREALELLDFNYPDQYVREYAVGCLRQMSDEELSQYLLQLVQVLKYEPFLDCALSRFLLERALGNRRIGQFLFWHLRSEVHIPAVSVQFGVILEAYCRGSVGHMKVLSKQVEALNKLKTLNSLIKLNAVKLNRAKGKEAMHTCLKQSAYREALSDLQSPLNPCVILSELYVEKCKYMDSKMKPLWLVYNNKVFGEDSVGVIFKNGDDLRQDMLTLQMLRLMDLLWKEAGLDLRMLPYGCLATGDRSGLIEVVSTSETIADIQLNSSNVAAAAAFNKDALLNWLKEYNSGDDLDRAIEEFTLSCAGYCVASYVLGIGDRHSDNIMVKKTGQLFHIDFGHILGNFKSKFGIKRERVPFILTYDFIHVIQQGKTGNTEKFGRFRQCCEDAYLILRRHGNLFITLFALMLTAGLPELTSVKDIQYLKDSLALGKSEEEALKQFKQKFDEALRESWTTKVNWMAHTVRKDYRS

[6] = biological target: Phosphatidylinositol 4,5-bisphosphate 3-kinase catalytic subunit gamma isoform (Homo sapiens, UniProt P48736); assay: Inhibition of human PI3Kgamma by ADP-Glo kinase assay
Chain of Phosphatidylinositol 4,5-bisphosphate 3-kinase catalytic subunit gamma isoform (P48736 whole entry, canonical isoform): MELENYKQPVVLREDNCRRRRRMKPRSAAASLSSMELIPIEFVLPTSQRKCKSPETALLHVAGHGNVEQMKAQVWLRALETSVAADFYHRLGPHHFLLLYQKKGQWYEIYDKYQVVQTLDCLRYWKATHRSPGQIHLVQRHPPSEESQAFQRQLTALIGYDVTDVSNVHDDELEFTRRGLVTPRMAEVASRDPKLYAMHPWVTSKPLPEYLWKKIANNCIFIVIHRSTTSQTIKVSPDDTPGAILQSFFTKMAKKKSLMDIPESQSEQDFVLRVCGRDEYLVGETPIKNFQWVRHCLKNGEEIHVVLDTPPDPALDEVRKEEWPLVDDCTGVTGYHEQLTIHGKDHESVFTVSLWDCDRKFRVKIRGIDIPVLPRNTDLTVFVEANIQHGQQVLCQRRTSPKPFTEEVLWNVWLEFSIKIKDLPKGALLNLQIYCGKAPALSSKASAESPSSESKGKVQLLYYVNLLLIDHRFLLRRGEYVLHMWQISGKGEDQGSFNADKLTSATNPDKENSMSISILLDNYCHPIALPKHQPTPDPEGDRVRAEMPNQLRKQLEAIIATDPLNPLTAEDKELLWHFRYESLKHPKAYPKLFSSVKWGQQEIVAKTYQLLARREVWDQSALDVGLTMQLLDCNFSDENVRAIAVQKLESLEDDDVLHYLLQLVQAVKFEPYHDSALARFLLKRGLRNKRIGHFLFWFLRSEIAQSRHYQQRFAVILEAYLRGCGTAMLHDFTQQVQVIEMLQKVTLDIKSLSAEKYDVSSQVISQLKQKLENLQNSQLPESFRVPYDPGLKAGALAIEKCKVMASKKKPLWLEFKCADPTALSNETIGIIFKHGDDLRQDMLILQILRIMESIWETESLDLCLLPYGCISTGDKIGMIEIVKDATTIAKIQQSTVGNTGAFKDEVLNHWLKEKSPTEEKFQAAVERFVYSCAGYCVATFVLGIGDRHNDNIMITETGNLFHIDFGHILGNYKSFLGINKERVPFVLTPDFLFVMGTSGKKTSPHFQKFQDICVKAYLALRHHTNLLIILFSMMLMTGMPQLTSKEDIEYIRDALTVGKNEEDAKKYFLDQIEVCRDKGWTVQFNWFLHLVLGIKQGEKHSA

Plasmodium falciparum [7] = assay: Antimalarial activity against chloroquine resistant Plasmodium falciparum FAB9 infected in human O+ erythrocytes incubated for 72 hrs by SYBR Green 1 dye based fluorescence assay; type: functional, organism-based; details: FAB9, Erythrocyte
[8] = biological target: Phosphatidylinositol 3-kinase catalytic subunit type 3 (Homo sapiens, UniProt Q8NEB9); assay: Inhibition of human VPS34 by ADP-Glo kinase assay
[9] = biological target: Phosphatidylinositol 4,5-bisphosphate 3-kinase catalytic subunit alpha isoform (Homo sapiens, UniProt P42336); assay: Inhibition of human PI3Kalpha by ADP-Glo kinase assay
[10] = biological target: T1, Phosphatidylinositol 4,5-bisphosphate 3-kinase catalytic subunit delta isoform (Homo sapiens, UniProt O00329); assay: Inhibition of human PI3Kdelta by ADP-Glo kinase assay
T1 sequence (O00329 whole entry): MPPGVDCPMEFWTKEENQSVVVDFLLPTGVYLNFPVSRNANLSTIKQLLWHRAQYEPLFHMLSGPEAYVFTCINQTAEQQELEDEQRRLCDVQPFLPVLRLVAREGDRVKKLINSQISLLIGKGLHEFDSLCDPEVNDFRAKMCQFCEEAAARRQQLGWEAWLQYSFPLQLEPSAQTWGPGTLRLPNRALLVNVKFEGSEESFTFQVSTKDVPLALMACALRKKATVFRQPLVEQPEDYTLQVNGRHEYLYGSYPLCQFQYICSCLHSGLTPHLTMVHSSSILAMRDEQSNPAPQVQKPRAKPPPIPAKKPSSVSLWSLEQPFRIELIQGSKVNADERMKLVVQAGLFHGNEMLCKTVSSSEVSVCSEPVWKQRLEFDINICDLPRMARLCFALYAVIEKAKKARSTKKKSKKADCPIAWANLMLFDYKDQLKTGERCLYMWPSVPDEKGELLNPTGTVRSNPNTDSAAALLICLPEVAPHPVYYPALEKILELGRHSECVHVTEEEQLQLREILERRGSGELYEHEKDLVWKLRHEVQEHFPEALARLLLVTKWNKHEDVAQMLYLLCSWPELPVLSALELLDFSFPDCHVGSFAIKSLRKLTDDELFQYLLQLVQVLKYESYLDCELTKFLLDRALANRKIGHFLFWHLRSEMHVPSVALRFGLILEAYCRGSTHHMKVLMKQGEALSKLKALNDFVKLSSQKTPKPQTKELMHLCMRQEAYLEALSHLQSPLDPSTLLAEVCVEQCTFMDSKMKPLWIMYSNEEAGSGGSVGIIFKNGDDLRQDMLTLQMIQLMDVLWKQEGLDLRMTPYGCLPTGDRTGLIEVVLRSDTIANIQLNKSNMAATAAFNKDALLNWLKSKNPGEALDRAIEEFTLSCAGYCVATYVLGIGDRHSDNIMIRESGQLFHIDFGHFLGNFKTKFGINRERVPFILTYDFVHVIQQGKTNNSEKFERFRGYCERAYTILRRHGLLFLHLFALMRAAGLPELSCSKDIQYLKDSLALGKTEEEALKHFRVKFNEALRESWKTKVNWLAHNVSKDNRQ

Plasmodium falciparum [11] = assay: Antimalarial activity against pyrimethamine/chloroquine resistant Plasmodium falciparum CP286 infected in human O+ erythrocytes incubated for 72 hrs by SYBR Green 1 dye based fluorescence assay; type: functional, organism-based; details: CP286, Erythrocyte
Plasmodium falciparum [12] = assay: Antimalarial activity against artemisinin resistant Plasmodium falciparum 803 infected in human O+ erythrocytes incubated for 72 hrs by SYBR Green 1 dye based fluorescence assay; type: functional, organism-based; details: Plasmodium falciparum, 803, Erythrocyte
Plasmodium falciparum [13] = assay: Antimalarial activity against pyrimethamine/chloroquine resistant Plasmodium falciparum PC26 infected in human O+ erythrocytes incubated for 72 hrs by SYBR Green 1 dye based fluorescence assay; type: functional, organism-based; details: PC26, Erythrocyte
[14] = biological target: Phosphatidylinositol 4-phosphate 3-kinase C2 domain-containing subunit beta (Homo sapiens, UniProt O00750); assay: Inhibition of human PIK3C2beta by ADP-Glo kinase assay
Plasmodium falciparum [15] = assay: Antimalarial activity against pyrimethamine/chloroquine resistant Plasmodium falciparum C2A infected in human O+ erythrocytes incubated for 72 hrs by SYBR Green 1 dye based fluorescence assay; type: functional, organism-based; details: Erythrocyte
Plasmodium falciparum [16] = assay: Antimalarial activity against chloroquine resistant Plasmodium falciparum D10 infected in human O+ erythrocytes incubated for 72 hrs by SYBR Green 1 dye based fluorescence assay; type: functional, organism-based; details: D10, Erythrocyte
Plasmodium falciparum [17] = assay: Antimalarial activity against mefloquine/chloroquine/pyrimethamine resistant Plasmodium falciparum Dd2 infected in human O+ erythrocytes incubated for 72 hrs by SYBR Green 1 dye based fluorescence assay; type: functional, organism-based; details: Dd2, Erythrocyte
[18] = biological target: Phosphatidylinositol 4-kinase alpha (Homo sapiens, UniProt P42356); assay: Inhibition of human PI4K3alpha by ADP-Glo kinase assay
Chain of Phosphatidylinositol 4-kinase alpha (P42356 whole entry): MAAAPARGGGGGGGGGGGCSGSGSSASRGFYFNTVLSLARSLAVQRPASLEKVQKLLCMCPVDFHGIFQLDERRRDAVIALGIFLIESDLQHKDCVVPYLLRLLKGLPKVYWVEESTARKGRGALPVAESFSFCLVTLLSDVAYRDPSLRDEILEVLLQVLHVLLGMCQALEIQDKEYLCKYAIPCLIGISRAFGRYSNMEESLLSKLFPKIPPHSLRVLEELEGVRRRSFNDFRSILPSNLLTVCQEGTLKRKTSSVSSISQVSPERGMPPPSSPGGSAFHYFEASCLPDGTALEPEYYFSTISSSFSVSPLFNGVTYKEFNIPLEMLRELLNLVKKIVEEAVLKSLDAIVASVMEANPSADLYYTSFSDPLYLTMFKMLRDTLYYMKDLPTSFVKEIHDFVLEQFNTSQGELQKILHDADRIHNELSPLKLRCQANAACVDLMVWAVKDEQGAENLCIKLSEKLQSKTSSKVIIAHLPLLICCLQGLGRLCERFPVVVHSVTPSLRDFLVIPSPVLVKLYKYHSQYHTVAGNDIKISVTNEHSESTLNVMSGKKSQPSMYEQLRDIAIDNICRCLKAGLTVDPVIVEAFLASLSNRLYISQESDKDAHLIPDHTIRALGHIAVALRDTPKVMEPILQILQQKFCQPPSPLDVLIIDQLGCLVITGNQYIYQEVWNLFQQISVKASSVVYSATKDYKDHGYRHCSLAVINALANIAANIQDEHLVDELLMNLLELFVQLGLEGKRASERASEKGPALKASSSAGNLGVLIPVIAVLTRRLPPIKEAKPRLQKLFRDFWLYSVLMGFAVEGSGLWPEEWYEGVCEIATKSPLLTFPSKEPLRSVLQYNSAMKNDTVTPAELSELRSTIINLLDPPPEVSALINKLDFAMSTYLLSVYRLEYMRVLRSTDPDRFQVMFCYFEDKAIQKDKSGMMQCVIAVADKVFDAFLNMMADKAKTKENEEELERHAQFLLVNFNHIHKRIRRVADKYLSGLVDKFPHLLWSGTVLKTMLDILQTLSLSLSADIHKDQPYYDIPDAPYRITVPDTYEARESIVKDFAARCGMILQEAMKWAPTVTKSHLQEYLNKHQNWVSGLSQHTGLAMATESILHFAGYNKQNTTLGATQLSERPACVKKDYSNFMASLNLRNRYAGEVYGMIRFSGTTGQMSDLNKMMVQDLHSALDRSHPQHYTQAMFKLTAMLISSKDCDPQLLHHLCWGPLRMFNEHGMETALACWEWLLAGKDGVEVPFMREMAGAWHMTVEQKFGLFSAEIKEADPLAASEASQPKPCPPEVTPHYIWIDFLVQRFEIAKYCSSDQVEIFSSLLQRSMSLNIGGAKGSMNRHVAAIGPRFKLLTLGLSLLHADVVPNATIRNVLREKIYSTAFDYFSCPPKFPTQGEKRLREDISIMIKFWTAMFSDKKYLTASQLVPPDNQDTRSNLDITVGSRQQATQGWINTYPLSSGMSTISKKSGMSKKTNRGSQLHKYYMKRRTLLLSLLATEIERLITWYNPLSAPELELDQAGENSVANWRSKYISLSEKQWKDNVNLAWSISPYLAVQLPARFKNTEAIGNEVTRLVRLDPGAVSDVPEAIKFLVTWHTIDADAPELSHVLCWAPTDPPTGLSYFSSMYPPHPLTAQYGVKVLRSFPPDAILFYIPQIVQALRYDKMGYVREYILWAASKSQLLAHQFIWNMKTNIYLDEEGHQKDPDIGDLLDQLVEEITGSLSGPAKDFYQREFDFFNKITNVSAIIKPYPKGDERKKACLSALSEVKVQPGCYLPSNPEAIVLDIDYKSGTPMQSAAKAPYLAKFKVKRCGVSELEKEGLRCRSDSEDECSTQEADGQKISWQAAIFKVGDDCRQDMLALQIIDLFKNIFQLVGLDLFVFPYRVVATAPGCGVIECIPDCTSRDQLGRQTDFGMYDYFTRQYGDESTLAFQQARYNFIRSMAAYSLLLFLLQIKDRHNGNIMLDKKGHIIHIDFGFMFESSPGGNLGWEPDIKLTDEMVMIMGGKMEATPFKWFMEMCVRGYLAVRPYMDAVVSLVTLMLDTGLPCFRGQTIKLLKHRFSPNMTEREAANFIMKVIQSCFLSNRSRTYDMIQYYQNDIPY

Plasmodium falciparum [19] = assay: Antimalarial activity against artemisinin and piperaquine-phosphate resistant Plasmodium falciparum 6320 infected in human O+ erythrocytes incubated for 72 hrs by SYBR Green 1 dye based fluorescence assay; type: functional, organism-based; details: Plasmodium falciparum, 6320, Erythrocyte
[20] = biological target: Phosphatidylinositol 4-kinase beta (Homo sapiens, UniProt Q9UBF8); assay: Inhibition of human PI4K3beta by ADP-Glo kinase assay
Chain of Phosphatidylinositol 4-kinase beta (Q9UBF8 whole entry): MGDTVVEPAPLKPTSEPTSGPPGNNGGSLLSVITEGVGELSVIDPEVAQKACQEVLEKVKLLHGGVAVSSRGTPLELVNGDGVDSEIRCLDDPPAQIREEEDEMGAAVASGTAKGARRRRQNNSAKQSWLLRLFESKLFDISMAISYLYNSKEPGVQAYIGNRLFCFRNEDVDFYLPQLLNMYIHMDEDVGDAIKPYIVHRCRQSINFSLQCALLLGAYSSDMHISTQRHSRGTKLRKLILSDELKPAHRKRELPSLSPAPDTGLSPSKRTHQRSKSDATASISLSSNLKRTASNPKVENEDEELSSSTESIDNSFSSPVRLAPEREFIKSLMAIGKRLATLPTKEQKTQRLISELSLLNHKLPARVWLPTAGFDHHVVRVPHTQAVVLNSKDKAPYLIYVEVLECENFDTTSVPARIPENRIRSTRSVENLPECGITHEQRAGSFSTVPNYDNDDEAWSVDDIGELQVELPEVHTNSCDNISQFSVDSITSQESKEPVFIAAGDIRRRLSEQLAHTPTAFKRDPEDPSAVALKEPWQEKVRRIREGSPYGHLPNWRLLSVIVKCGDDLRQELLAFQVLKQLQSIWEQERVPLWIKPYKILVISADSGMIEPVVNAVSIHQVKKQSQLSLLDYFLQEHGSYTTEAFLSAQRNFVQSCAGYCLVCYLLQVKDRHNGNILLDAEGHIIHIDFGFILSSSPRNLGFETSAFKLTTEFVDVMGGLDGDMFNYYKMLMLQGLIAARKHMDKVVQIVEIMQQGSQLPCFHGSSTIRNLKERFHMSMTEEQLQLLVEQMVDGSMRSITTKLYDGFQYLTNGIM

Structure (SMILES) | IC50 [1] [nM] | EC50 (Plasmodium falciparum [2]) [nM] | other results
CNC(=O)c1cncc(-c2cnc(Cl)c(NS(=O)(=O)c3ccc(Cl)cc3)c2)c1 | 1.6 | 71 | 
CNC(=O)c1cncc(-c2cnc(Cl)c(NC(=O)c3ccccc3)c2)c1 | > 156 | > 10000 | 
O=C(NCc1ccccc1)c1cncc(-c2cnc(Cl)c(NS(=O)(=O)c3ccccc3)c2)c1 | 8.5 | 3570 | 
CNC(=O)c1cncc(-c2cnc(Cl)c(NS(=O)(=O)c3ccc(C)cc3C)c2)c1 | 2.2 | 39 | 
CNC(=O)c1cncc(-c2cnc(Cl)c(NS(=O)(=O)c3ccc(Cl)cc3Cl)c2)c1 | 1.2 | 120 | 
Cn1cc(-c2cnc(Cl)c(NS(=O)(=O)c3ccccc3)c2)cn1 | 10 | 1490 | 
O=C(Nc1cccc(F)c1)c1cncc(-c2cnc(Cl)c(NS(=O)(=O)c3ccccc3)c2)c1 | > 156 | > 10000 | 
O=S(=O)(Nc1cc(-c2ccncc2)cnc1Cl)c1ccccc1 | > 156 | > 10000 | 
C[C@H](CN)NC(=O)c1cncc(-c2cnc(Cl)c(NS(=O)(=O)c3ccccc3)c2)c1 | > 40 | > 10000 | 
O=S(=O)(Nc1cc(-c2cccnc2)cnc1Cl)c1ccccc1 | 12.7 | 4710 | 
CNC(=O)c1cncc(-c2cnc(Cl)c(NS(=O)(=O)c3ccc(-c4ccccc4)cc3)c2)c1 | 8.8 | 5880 | 
CCNC(=O)c1cncc(-c2cnc(Cl)c(NS(=O)(=O)c3ccccc3)c2)c1 | 2.3 | 120 | 
CC(=O)n1ccc2cc(-c3cnc(Cl)c(NS(=O)(=O)c4ccccc4)c3)cnc21 | 8.1 | 1050 | 
O=S(=O)(Nc1cc(-c2cnc3[nH]ncc3c2)cnc1Cl)c1ccccc1 | 5.6 | 4670 | 
O=C(Nc1ccc(F)cc1)c1cncc(-c2cnc(Cl)c(NS(=O)(=O)c3ccccc3)c2)c1 | > 156 | > 10000 | 
CNC(=O)c1cncc(-c2cnc(Cl)c(NS(=O)(=O)c3ccc(F)cc3F)c2)c1 | 0.4 | 3400 | 

Structure (SMILES) | IC50 [1] [nM] | EC50 (Plasmodium falciparum [2]) [nM] | other results
CNC(=O)c1cncc(-c2cnc(Cl)c(NS(=O)(=O)c3cccc(-c4ccccc4)c3)c2)c1 | 7.5 | 7700 | 
CNC(=O)c1cncc(-c2cnc(Cl)c(NS(=O)(=O)c3ccc4c(c3)CCO4)c2)c1 | 4.5 | 340 | 
CNC(=O)c1cncc(-c2cnc(Cl)c(NS(=O)(=O)c3cccc(C(F)(F)F)c3)c2)c1 | 2.5 | 3500 | 
O=S(=O)(Nc1cc(-c2cnc3[nH]ccc3c2)cnc1Cl)c1ccccc1 | 7.7 | 3940 | 
CNC(=O)c1cc(-c2cnc(Cl)c(NS(=O)(=O)c3ccccc3)c2)c[nH]1 | > 156 | > 10000 | 
CNC(=O)c1ccc(-c2cnc3cnc(C(=O)N(C)c4ccc(Cl)cc4)cn23)cc1 | 1.6 | 41.1 | EC50 (Plasmodium falciparum [3]): 39.2 nM; IC50 [4]: > 10000 nM; IC50 [5]: 2730 nM; IC50 [6]: 5920 nM; EC50 (Plasmodium falciparum [7]): 44.8 nM; IC50 [8]: 9200 nM; IC50 [9]: > 10000 nM; IC50 [10]: 3100 nM; EC50 (Plasmodium falciparum [11]): 31.9 nM; EC50 (Plasmodium falciparum [12]): 41.8 nM; EC50 (Plasmodium falciparum [13]): 54.9 nM; IC50 [14]: > 10000 nM; EC50 (Plasmodium falciparum [15]): 33.7 nM; EC50 (Plasmodium falciparum [16]): 43.9 nM; EC50 (Plasmodium falciparum [17]): 46.7 nM; IC50 [18]: 1420 nM; EC50 (Plasmodium falciparum [19]): 33.6 nM; IC50 [20]: > 10000 nM
O=C(Nc1ccccc1)c1cncc(-c2cnc(Cl)c(NS(=O)(=O)c3ccccc3)c2)c1 | 145 | 3680 | 
NCCNC(=O)c1cncc(-c2cnc(Cl)c(NS(=O)(=O)c3ccccc3)c2)c1 | 13.8 | 130 | 
CNC(=O)c1cncc(-c2cnc(Cl)c(NS(=O)(=O)c3ccc(C)cc3)c2)c1 | 1.2 | 39 | 
CNC(=O)c1cncc(-c2cnc(Cl)c(NS(=O)(=O)c3ccc(C(F)(F)F)cc3)c2)c1 | > 156 | 130 | 
CNC(=O)c1cccc(-c2cnc(Cl)c(NS(=O)(=O)c3ccccc3)c2)c1 | > 156 | > 10000 | 
CNC(=O)c1cc(-c2cnc(Cl)c(NS(=O)(=O)c3ccccc3)c2)ccn1 | > 156 | > 10000 | 
CN(C)[C@H]1CCN(C(=O)c2cncc(-c3cnc(Cl)c(NS(=O)(=O)c4ccccc4)c3)c2)C1 | > 156 | > 10000 | 
CCS(=O)(=O)Nc1cc(-c2cncc(C(=O)NC)c2)cnc1Cl | 52.6 | 3500 | 
CCCS(=O)(=O)Nc1cc(-c2cncc(C(=O)NC)c2)cnc1Cl | 13.2 | 480 | 
CNC(=O)c1cncc(-c2cnc(Cl)c(NS(=O)(=O)c3ccccc3C(F)(F)F)c2)c1 | 0.5 | 87 | 
